Laboratory results from patent US20200017496A1 (priority 2017, published 2020).
Like-named read-outs stand apart in the source and are kept apart here.

Key:
Experiment in all cases: MIC of compounds alone and combined with antibacterials, broth microdilution (CLSI)
Format in all cases: cell-based
[1] = system: Morganella morganii (MMO) isolates; details: for MIC ATB in combination: MMO UFR247; for MIC: Morganella morganii
Summary of the method: (§1)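 Log-phase isolates at final 5·10^5 CFU/mL in cation-adjusted Mueller-Hinton broth, incubated 16-20 h at 35° C in ambient air. MIC read visually as lowest concentration preventing growth, for compound alone and for antibacterial at each compound concentration.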

[2] = system: Providencia stuartii (PST) isolates; details: for MIC: Providencia stuartii, read-out: MIC
Summary of the method: as §1

[3] = system: Serratia marcescens (SMA) isolates; details: for MIC: Serratia marcescens, read-out: MIC
Summary of the method: as §1

Structure (SMILES): C=CC1=C(C(=O)O)N2C(=O)[C@@H](NC(=O)/C(=N\OCC(=O)O)c3csc(N)n3)[C@H]2SC1 [FIX, Cefixime]
- MIC ATB in combination ([1]; AF1 @ 4 μg/mL): 0.5 µg/mL
- MIC ATB in combination ([1]; AF1 @ 8 μg/mL): 0.25 µg/mL
- MIC ([1]; strain MMO 200321 (TEM-1, CTX-M-15, OXA-1), ATB alone): > 128 µg/mL
- MIC ([1]; strain MMO 200321 (TEM-1, CTX-M-15, OXA-1), CLA @ 4 μg/ml+ ATB, read-out: MIC): 32 µg/mL
- MIC ([1]; strain MMO UFR144 (TEM-1, CTX-M-15), ATB alone): > 128 µg/mL
- MIC ([1]; strain MMO UFR144 (TEM-1, CTX-M-15), CLA @ 4 μg/ml+ ATB, read-out: MIC): 32 µg/mL
- MIC ([1]; strain MMO UFR240 (CTX-M-9), ATB alone, read-out: MIC): 1 µg/mL
- MIC ([1]; strain MMO UFR240 (CTX-M-9), CLA @ 4 μg/ml+ ATB, read-out: MIC): 8 µg/mL
- MIC ([1]; strain MMO UFR241 (TEM-1, CTX-M-15), ATB alone): > 128 µg/mL
- MIC ([1]; strain MMO UFR241 (TEM-1, CTX-M-15), CLA @ 4 μg/ml+ ATB, read-out: MIC): 32 µg/mL
- MIC ([1]; strain MMO UFR242 (TEM-52), ATB alone, read-out: MIC): 1020 µg/mL
- MIC ([1]; strain MMO UFR242 (TEM-52), CLA @ 4 μg/ml+ ATB, read-out: MIC): 64 µg/mL
- MIC ([1]; strain MMO UFR243 (DHA-1), ATB alone, read-out: MIC): 8 µg/mL
- MIC ([1]; strain MMO UFR243 (DHA-1), CLA @ 4 μg/ml+ ATB, read-out: MIC): 32 µg/mL
- MIC ([1]; strain MMO UFR244 (DHA-1), ATB alone, read-out: MIC): 4 µg/mL
- MIC ([1]; strain MMO UFR244 (DHA-1), CLA @ 4 μg/ml+ ATB, read-out: MIC): 8 µg/mL
- MIC ([1]; strain MMO UFR245 (DHA-1), ATB alone, read-out: MIC): 32 µg/mL
- MIC ([1]; strain MMO UFR245 (DHA-1), CLA @ 4 μg/ml+ ATB, read-out: MIC): 64 µg/mL
- MIC ([1]; strain MMO UFR246 (DHA-1), ATB alone, read-out: MIC): 32 µg/mL
- MIC ([1]; strain MMO UFR246 (DHA-1), CLA @ 4 μg/ml+ ATB, read-out: MIC): 64 µg/mL
- MIC ([1]; strain MMO UFR247 (DHA-1), ATB alone, read-out: MIC): 16 µg/mL
- MIC ([1]; strain MMO UFR247 (DHA-1), CLA @ 4 μg/ml+ ATB, read-out: MIC): 32 µg/mL
- MIC ATB in combination ([2]; PST UFR94, AF1 @ 4 μg/mL): <=0.25 μg/mL
- MIC ATB in combination ([2]; PST UFR94, AF1 @ 8 μg/mL): <=0.25 μg/mL
- MIC ATB in combination ([2]; PST UFR95, AF1 @ 4 μg/mL): <=0.25 μg/mL
- MIC ATB in combination ([2]; PST UFR95, AF1 @ 8 μg/mL): <=0.25 μg/mL
- MIC ATB in combination ([2]; PST UFR235, AF1 @ 4 μg/mL): 0.125 µg/mL
- MIC ATB in combination ([2]; PST UFR235, AF1 @ 8 μg/mL): 0.063 µg/mL
- MIC ([2]; PST UFR235, alone): 512 µg/mL
- MIC ([2]; strain PST UFR94 (CTX-M-14), ATB alone): 0.5 µg/mL
- MIC ([2]; strain PST UFR94 (CTX-M-14), CLA @ 4 μg/ml+ ATB): 2 µg/mL
- MIC ([2]; strain PST UFR95 (TEM-24), ATB alone): 4 µg/mL
- MIC ([2]; strain PST UFR95 (TEM-24), CLA @ 4 μg/ml+ ATB): 8 µg/mL
- MIC ([2]; strain PST UFR235 (VEB-1), ATB alone): 512 µg/mL
- MIC ([2]; strain PST UFR235 (VEB-1), CLA @ 4 μg/ml+ ATB): 8 µg/mL
- MIC ATB in combination ([3]; SMA UFR30, AF1 @ 4 μg/mL): <=0.25 μg/mL
- MIC ATB in combination ([3]; SMA UFR30, AF1 @ 8 μg/mL): <=0.25 μg/mL
- MIC ATB in combination ([3]; SMA UFR134, AF1 @ 4 μg/mL): 1 µg/mL
- MIC ATB in combination ([3]; SMA UFR134, AF1 @ 8 μg/mL): 1 µg/mL
- MIC ATB in combination ([3]; SMA UFR135, AF1 @ 4 μg/mL): 2 µg/mL
- MIC ATB in combination ([3]; SMA UFR135, AF1 @ 8 μg/mL): 2 µg/mL
- MIC ATB in combination ([3]; SMA UFR136, AF1 @ 4 μg/mL): 4 µg/mL
- MIC ATB in combination ([3]; SMA UFR136, AF1 @ 8 μg/mL): 2 µg/mL
- MIC ATB in combination ([3]; SMA UFR137, AF1 @ 4 μg/mL): <=0.25 μg/mL
- MIC ATB in combination ([3]; SMA UFR137, AF1 @ 8 μg/mL): <=0.25 μg/mL
- MIC ATB in combination ([3]; SMA UFR138, AF1 @ 4 μg/mL): <=0.25 μg/mL
- MIC ATB in combination ([3]; SMA UFR138, AF1 @ 8 μg/mL): <=0.25 μg/mL
- MIC ATB in combination ([3]; SMA UFR139, AF1 @ 4 μg/mL): 0.5 µg/mL
- MIC ATB in combination ([3]; SMA UFR139, AF1 @ 8 μg/mL): <=0.25 μg/mL
- MIC ATB in combination ([3]; SMA UFR141, AF1 @ 4 μg/mL): 0.5 µg/mL
- MIC ATB in combination ([3]; SMA UFR141, AF1 @ 8 μg/mL): 0.5 µg/mL
- MIC ATB in combination ([3]; SMA UFR142, AF1 @ 4 μg/mL): 2 µg/mL
- MIC ATB in combination ([3]; SMA UFR142, AF1 @ 8 μg/mL): 1 µg/mL
- MIC ATB in combination ([3]; SMA UFR143, AF1 @ 4 μg/mL): 0.25 µg/mL
- MIC ATB in combination ([3]; SMA UFR143, AF1 @ 8 μg/mL): 0.25 µg/mL
- MIC ATB in combination ([3]; SMA UFR239, AF1 @ 4 μg/mL): 0.5 µg/mL
- MIC ATB in combination ([3]; SMA UFR239, AF1 @ 8 μg/mL): 0.5 µg/mL
- MIC ([3]; ATB alone, strain SMA UFR238 (OXA-48)): 1 µg/mL
- MIC ([3]; ATB combined with CLA @ 4 μg/ml, strain SMA UFR238 (OXA-48)): 2 µg/mL
- MIC ([3]; SMA UFR143, alone): 512 µg/mL
- MIC ([3]; strain SMA UFR30 (OXA-405), ATB alone): 1 µg/mL
- MIC ([3]; strain SMA UFR30 (OXA-405), CLA @ 4 μg/ml+ ATB): 1 µg/mL
- MIC ([3]; strain SMA UFR134 (TEM-1, BES-1), ATB alone): > 128 µg/mL
- MIC ([3]; strain SMA UFR134 (TEM-1, BES-1), CLA @ 4 μg/ml+ ATB): 32 µg/mL
- MIC ([3]; strain SMA UFR135 (TEM-1, KPC-2), ATB alone): 64 µg/mL
- MIC ([3]; strain SMA UFR135 (TEM-1, KPC-2), CLA @ 4 μg/ml+ ATB): 32 µg/mL
- MIC ([3]; strain SMA UFR136 (TEM-1, SHV-12, KPC-2), ATB alone): > 128 µg/mL
- MIC ([3]; strain SMA UFR136 (TEM-1, SHV-12, KPC-2), CLA @ 4 μg/ml+ ATB): > 128 µg/mL
- MIC ([3]; strain SMA UFR137 (SME-1), ATB alone): 0.5 µg/mL
- MIC ([3]; strain SMA UFR137 (SME-1), CLA @ 4 μg/ml+ ATB): 1 µg/mL
- MIC ([3]; strain SMA UFR138 (SME-1), ATB alone): 0.5 µg/mL
- MIC ([3]; strain SMA UFR138 (SME-1), CLA @ 4 μg/ml+ ATB): 0.5 µg/mL
- MIC ([3]; strain SMA UFR139 (SME-2), ATB alone): 1 µg/mL
- MIC ([3]; strain SMA UFR139 (SME-2), CLA @ 4 μg/ml+ ATB): 2 µg/mL
- MIC ([3]; strain SMA UFR141 (OXA-48), ATB alone): 2 µg/mL
- MIC ([3]; strain SMA UFR141 (OXA-48), CLA @ 4 μg/ml+ ATB): 0.5 µg/mL
- MIC ([3]; strain SMA UFR142 (OXA-48), ATB alone): 2 µg/mL
- MIC ([3]; strain SMA UFR142 (OXA-48), CLA @ 4 μg/ml+ ATB): 2 µg/mL
- MIC ([3]; strain SMA UFR143 (CTX-M-15, OXA-1, OXA-48), ATB alone): 512 µg/mL
- MIC ([3]; strain SMA UFR143 (CTX-M-15, OXA-1, OXA-48), CLA @ 4 μg/ml+ ATB): 64 µg/mL
- MIC ([3]; strain SMA UFR239 (ESAC), ATB alone): 2 µg/mL
- MIC ([3]; strain SMA UFR239 (ESAC), CLA @ 4 μg/ml+ ATB): 2 µg/mL
- MIC ATB in combination ([3]; strain SMA UFR238, antibacterial combined with AF1 @ 4 μg/mL): 1 µg/mL
- MIC ATB in combination ([3]; strain SMA UFR238, antibacterial combined with AF1 @ 8 μg/mL): 0.5 µg/mL
